Each structure is given as a SMILES string.

The IC50 is the point on the concentration scale where inhibition reaches its midpoint.

This experiment concerns the target 5-LOX (5-lipoxygenase). Description: 5-Lipoxygenase inhibitory assay. In kind it is biochemical. To be noted: conc. 0.001, 0.01, 1.0 and 10 µM; zileuton positive control; read-out: 5-LOX inhibition IC50. The procedure: Optical rotation was estimated using a 341LC Perkin-Elmer polarimeter (Perkin-Elmer, Waltham, MA, USA). UV and IR were assessed employing Shimadzu UV/VIS 1601 and IR-400 spectrophotometers (Shimadzu, Kyoto, Japan), respectively. Orbitrap LTQ (ThermoFinnigan, Bremen, Germany) and 850 INOVA BRUKER (Bruker BioSpin, Billerica, MA, USA) were utilized for HRESIMS and NMR measuring. The chromatographic investigation was achieved utilizing SiO260/Sephadex LH-20/RP-18, in addition to a 6-mL RP-18 LiChrolut extraction tube (Merck/Darmstadt/Germany).
IC50s were estimated by regression analysis (GraphPad-InStat 3, GraphPad Software, San Diego, CA, USA). The % 5-LOX inhibition of and IC50s are listed as mean-values ±SD. Statistical significance was analyzed among the samples by one-way-ANOVA and subsequently by Tukey–Kramer test (p < 0.005).
`C=C(CCC(C)C1CC=C2C3=C(C(O)C(OC(C)=O)C21C)C1(C)CC(O)C(OC(=O)CCCCCCCCCO)C(C)(C)C1CC3)C(C)C` (stereo not drawn) [Compound 4, integracide G]: the IC50 was determined as 1180 nM. Regarding `C=C(CCC(C)C1CC=C2C3=C(C(O)C(OC(C)=O)C21C)C1(C)CC(O)C(OC(=O)c2ccc(O)cc2)C(C)(C)C1CC3)C(C)C` (stereo not drawn) [Compound 6, integracide J], the IC50 was 2010 nM. As for `C=C(CC[C@@H](C)[C@H]1CC=C2C3=C([C@@H](O)[C@H](OC(C)=O)[C@@]21C)[C@@]1(C)C[C@@H](O)[C@H](O)C(C)(C)[C@@H]1CC3)C(C)C` [Compound 2, integracide B], the IC50 amounted to 3970 nM. `C=C(CCC(C)C1CC=C2C3=C(C(O)C(OC(C)=O)C21C)C1(C)CC(O)C(OC(C)=O)C(C)(C)C1CC3)C(C)C` (stereo not drawn) [Compound 3, integracide F]: the IC50 came to 2760 nM. Take `C=C(CCC(C)C1(O)CCC2C3=C(C(O)C(OC(C)=O)C21C)C1(C)CC(O)C(OC(C)=O)C(C)(C)C1CC3)C(C)C` (stereo not drawn) [Compound 1, integracide L]: the IC50 was determined as 3450 nM. Regarding `C=C(CCC(C)C1CC=C2C3=C(C(O)C(OC(C)=O)C21C)C1(C)CC(OC(C)=O)C(OC(C)=O)C(C)(C)C1CC3)C(C)C` (stereo not drawn) [Compound 5, integracide H], the IC50 was found to be 1460 nM.

For the origin of these results see article PMC9782297, “Integracides: Tetracyclic Triterpenoids from Fusarium sp.—Their 5-Lipoxygenase Inhibitory Potential and Structure–Activity Relation Using In Vitro and Molecular Docking Studies” (Life, 2022).
